Measurements from patent publication US9737512B2, “Methods and compositions for treating chronic pain” (THE BOARD OF REGENTS OF THE UNIVERSITY OF TEXAS SYSTEM, priority 2015, dated 2017).
pIC50: −log10 of the molar value.

Experiments:
[1] = tested on: CFA-induced mechanical allodynia; assay: CFA-induced mechanical allodynia, von Frey test; format: in vivo, mice
Description: FIG. 1. Effect of ESI-09 in CFA-induced inflammatory mechanical allodynia. (A) Mice (n=4/group) received 5 μl CFA intraplantarly in the hind paws and were treated with vehicle or ESI-09 20 mg/kg (n=4) daily by oral gavage for 6 days starting immediately after CFA injection. Mechanical allodynia was quantified with von Frey Hairs using the up and down method at 24 hours after ESI treatment. (B) CFA-induced mechanical allodynia in WT, heterozygous, and homozygous Epac1-knockout mice. The sensitivity to mechanical stimulation was followed over time in wild-type (WT, n=3), Epac1^+/− (HE, n=6) and Epac1^−/− (HO, n=5) mice after intraplantar injection of 5 μl CFA. […] (D) Dose-response curve for the effect of ESI-09 (5, 20, or 50 mg/kg). Treatment was started on the 3rd day after CFA administration (n=4/group) (E) Mechanical allodynia was measured in WT mice with 6 days treatments of ESI-09 20 (n=3) and 50 mg/kg (n=4) to control for a potential effect on baseline mechanical sensitivity. Data are expressed as 50% withdrawal threshold in grams calculated as described in the methods section and represent mean±SEM. […] In FIG. 1B, *p<0.05, ** p<0.01 for WT versus HO, #p<0.05, ##P<0.01 for WT versus HE, +p<0.05, ++p<0.01 for HE versus HO. In FIG. 1D, **p<0.01 and ##p<0.01 are ESI-09 50 mg/kg and ESI-09 20 mg/kg compared to the Vehicle treated mice.
To determine whether the Epac inhibitor ESI-09 can be used to treat inflammatory pain, the CFA model was used. CFA was administered intraplantarly and mice were treated with ESI-09 20 mg/kg daily by oral gavage for 6 days starting immediately after injection of CFA. Mechanical allodynia was examined using the von Frey test.
ESI-09 20 mg/kg was administered orally three days after CFA. […] The effect of ESI-09 was dose-dependent (FIG. 1D). […] The beneficial effect of ESI-09 was detectable until at least 24 hours after the last dose. No effect of daily oral administration of 50 mg/kg ESI-09 on mechanical sensitivity in saline treated control mice was observed ([…]).

[2] = tested on: ovalbumin-induced oral tolerance; details: daily 10 mg/kg IP or 50 mg/kg oral gavage; cited from earlier work
[3] = tested on: paclitaxel-induced mechanical allodynia; assay: Paclitaxel (chemotherapy)-induced mechanical allodynia, von Frey; format: in vivo, mice
Description: FIG. 4. Effect of ESI-09 on chemotherapy-induced mechanical allodynia. Mice (n=5/group) were treated with paclitaxel (10 mg/kg, Monday, Wednesday and Friday) for two weeks. ESI-09 (20 mg/kg) or vehicle was given by oral gavage for 6 days starting on the first day (A) or 10 days (B) after completion of paclitaxel treatment. The sensitivity to mechanical stimulation was determined in wild-type (n=5) and Epac1−/− (n=4) in the same paclitaxel model (C). Mechanical allodynia was monitored by von Frey hair using the up and down method. Data are expressed as means±SEM. *p<0.05, ** p<0.01.
Chemotherapy-induced peripheral neuropathy is a frequent side effect of cancer treatment, and currently there are no FDA-approved drugs to treat or prevent chemotherapy-induced neuropathy. The model of paclitaxel-induced mechanical allodynia to investigate the potential effect of ESI-09 on chemotherapy-induced neuropathy. Mice were treated with three doses (10 mg/kg/dose) of paclitaxel per week for 2 weeks. Administration of ESI-09 was started on the first day after completion of paclitaxel treatment when there was clear allodynia present. Mice were treated daily with ESI-09 (20 mg/kg) or vehicle by oral gavage for 6 days. […] The beneficial effect of treatment was detectable until 72 hours after the last dose of ESI-09. In a second set of experiments, ESI-09 treatment was delayed until 10 days after the completion of paclitaxel treatment.

[4] = tested on: SNI-induced mechanical allodynia; assay: Spared nerve injury (SNI)-induced mechanical allodynia, von Frey; format: in vivo, mice
Description: FIG. 3. Effect of ESI-09 on Spared nerve injury (SNI)-induced mechanical allodynia. Spared nerve injury was performed on WT mice and mice were treated daily with ESI-09 (50 mg/kg) or vehicle by oral gavage for 6 days starting on the 3rd day after SNI. Mechanical allodynia was monitored in (A) ipsi- and (B) contralateral paw using von Frey hairs and the up and down method at 24 hours after ESI-treatment (n=7 per group). Data are expressed as 50% paw withdrawal thresholds calculated as described in the methods section and represent mean±SEM. n=7/group. *p<0.05, **p<0.01 vs. vehicle group.
It has been shown that EPAC1−/− mice are protected against neuropathic pain in a model of nerve injury. The effect of ESI-09 in the spared nerve injury (SNI) model of chronic neuropathic pain was examined. […] As expected, mice treated with vehicle developed unilateral mechanical allodynia ([…]). […] The beneficial effect of ESI-09 was maintained for 48 hours after the last dose.

pancreatic cell lines = details: cited from earlier work
EPAC2 = molecular target: T1, EPAC2 (Mus musculus, UniProt Q9EQZ6); details: cited from earlier work
T1 sequence (Q9EQZ6 1-1011): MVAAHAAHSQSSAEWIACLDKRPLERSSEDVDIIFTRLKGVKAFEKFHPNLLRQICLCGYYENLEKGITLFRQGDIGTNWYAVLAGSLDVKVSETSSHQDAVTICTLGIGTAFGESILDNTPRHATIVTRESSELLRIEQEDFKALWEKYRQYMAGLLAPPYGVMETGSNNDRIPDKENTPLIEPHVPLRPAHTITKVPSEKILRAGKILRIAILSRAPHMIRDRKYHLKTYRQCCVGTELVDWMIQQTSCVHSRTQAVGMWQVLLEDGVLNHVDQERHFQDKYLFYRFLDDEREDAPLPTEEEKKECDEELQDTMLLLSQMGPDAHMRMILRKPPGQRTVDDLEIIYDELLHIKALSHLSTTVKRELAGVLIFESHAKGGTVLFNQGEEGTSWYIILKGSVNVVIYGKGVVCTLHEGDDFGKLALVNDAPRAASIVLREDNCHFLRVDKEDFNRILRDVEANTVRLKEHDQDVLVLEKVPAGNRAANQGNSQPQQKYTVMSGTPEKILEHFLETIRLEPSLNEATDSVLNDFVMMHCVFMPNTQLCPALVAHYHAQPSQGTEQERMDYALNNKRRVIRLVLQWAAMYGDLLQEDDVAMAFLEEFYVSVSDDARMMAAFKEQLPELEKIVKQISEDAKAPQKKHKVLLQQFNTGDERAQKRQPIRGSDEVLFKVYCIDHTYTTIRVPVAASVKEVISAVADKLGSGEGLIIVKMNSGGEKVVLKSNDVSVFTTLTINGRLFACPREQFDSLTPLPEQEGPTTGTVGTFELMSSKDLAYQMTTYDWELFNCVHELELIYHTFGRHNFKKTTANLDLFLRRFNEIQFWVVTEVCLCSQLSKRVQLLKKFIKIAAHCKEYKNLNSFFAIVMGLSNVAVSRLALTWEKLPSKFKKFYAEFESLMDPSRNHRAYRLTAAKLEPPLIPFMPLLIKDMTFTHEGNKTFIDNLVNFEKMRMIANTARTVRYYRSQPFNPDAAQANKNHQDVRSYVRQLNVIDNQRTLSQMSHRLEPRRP

rickettsioses = details: daily 10 mg/kg IP or 50 mg/kg oral gavage, mice; cited from earlier work
[5] = tested on: pancreatic cancer cell lines; details: cited from earlier work
[6] = tested on: CFA-induced heat hyperalgesia; assay: CFA-induced heat hyperalgesia, Hargreaves test; format: in vivo, mice
Description: FIG. 2. Effect of ESI-09 on CFA-induced heat hyperalgesia. (A) Mice (n=4/group) received 5 μl CFA intraplantarly in the hind paws and were treated with vehicle or ESI-09 20 mg/kg (n=4) daily by oral gavage for 6 days starting after CFA injection. Heat hyperalgesia was determined using the Hargreaves test and is expressed as heat-withdrawal latency in seconds. (B) CFA-induced heat hyperalgesia in WT and Epac1−/− mice. (C) Heat sensitivity of saline treated mice with 20 mg/kg ESI-09. Data represent mean±SEM (n=4 per group).
Intraplantar administration of CFA also induces significant heat hyperalgesia (FIG. 2A). However, no effect of ESI-09 (20 mg/kg) on heat hyperalgesia was detected (FIG. 2A). Consistently, CFA-induced heat hyperalgesia was not different between WT and Epac1−/− mice.

PKA = details: at 25 μM; cited from earlier work
[7] = 50 mg/kg oral gavage daily 6 days, starting 3 days after SNI

Question: What does the source list for `CC(C)(C)c1cc(C(=O)/C(C#N)=N/Nc2cccc(Cl)c2)no1` [ESI-09, 3-(5-tert-Butyl-isoxazol-3-yl)-2-[(3-chlorophenyl)-hydrazono]-3-oxo-propionitrile]?
Answer: CFA-induced mechanical allodynia ([1]; 5 mg/kg (lowest dose), started 3rd day after CFA): did not observe an effect; CFA-induced mechanical allodynia ([1]; 20 mg/kg daily oral gavage 6 days, starting immediately after CFA): strongly inhibited; time inhibition is maintained after administration ([1]; 20 mg/kg oral, started three days after CFA): at least 24 h; inhibition of CFA-induced mechanical allodynia at 2 hours ([1]; 20 mg/kg oral, started three days after CFA, 2 hours after administration): Partial inhibition; inhibition of CFA-induced mechanical allodynia at 6 hours ([1]; 20 mg/kg oral, started three days after CFA, 6 hours after administration): fully developed; CFA-induced mechanical allodynia ([1]; 20 mg/kg, started 3rd day after CFA): significantly reduced; mechanical sensitivity in saline treated control mice ([1]; 50 mg/kg daily oral): No effect; CFA-induced mechanical allodynia ([1]; 50 mg/kg, started 3rd day after CFA): significantly reduced; dose dependence of effect on CFA-induced mechanical allodynia ([1]; 5, 20 or 50 mg/kg, started 3rd day after CFA): dose-dependent; time beneficial effect detectable after the last dose ([1]; CFA model): at least 24 hours; mechanical sensitivity of control mice ([1]; ESI-09 given to control mice (no CFA)): did not have any effect; ovalbumin-induced oral tolerance (recapitulates EPAC1 knockout phenotype) [2]: compromising ovalbumin-induced oral tolerance; paclitaxel-induced mechanical allodynia ([3]; 20 mg/kg oral gavage daily 6 days, started first day after completion of paclitaxel): almost completely rescued; time beneficial effect detectable after the last dose ([3]; paclitaxel model, 20 mg/kg): 72 h; paclitaxel-induced mechanical allodynia, later phase ([3]; treatment delayed until 10 days after completion of paclitaxel): significantly inhibited; SNI-induced mechanical allodynia, ipsilateral paw [4, 7]: almost completely reversed; normal mechanical sensitivity, contralateral paw [4, 7]: without affecting; time beneficial effect maintained after the last dose ([4]; SNI model, 50 mg/kg): 48 h; insulin secretion (pancreatic cell lines): blocks; phosphorylation of Akt (pancreatic cell lines): blocks; pIC50 (EPAC2): 5.85; protection from lethal rickettsioses (recapitulates EPAC1 knockout phenotype) (rickettsioses): protecting mice from lethal rickettsioses; migration of pancreatic cancer cell lines [5]: inhibits; CFA-induced heat hyperalgesia ([6]; 20 mg/kg daily oral gavage): no effect; heat sensitivity of naïve animals ([6]; naïve animals): did not affect; activity against PKA (PKA): no activity
